Read-outs that look alike come from different tables or passages of the source.
Columns and labels:
WT B‐RAF [1] = biological target: T1, WT B‐RAF (Homo sapiens, UniProt P15056); test: TR-FRET kinase assay, MEK1 (K97R) substrate; assay type: biochemical
T1 construct: gene BRAF; overexpressed in HEK293 cells, immunoprecipitated

WT C‐RAF = biological target: T2, WT C‐RAF (Homo sapiens, UniProt P04049); test: TR-FRET kinase assay, MEK1 (K97R) substrate; assay type: biochemical
T2 construct: gene RAF1; overexpressed in HEK293 cells, immunoprecipitated
T2 sequence (P04049 whole entry): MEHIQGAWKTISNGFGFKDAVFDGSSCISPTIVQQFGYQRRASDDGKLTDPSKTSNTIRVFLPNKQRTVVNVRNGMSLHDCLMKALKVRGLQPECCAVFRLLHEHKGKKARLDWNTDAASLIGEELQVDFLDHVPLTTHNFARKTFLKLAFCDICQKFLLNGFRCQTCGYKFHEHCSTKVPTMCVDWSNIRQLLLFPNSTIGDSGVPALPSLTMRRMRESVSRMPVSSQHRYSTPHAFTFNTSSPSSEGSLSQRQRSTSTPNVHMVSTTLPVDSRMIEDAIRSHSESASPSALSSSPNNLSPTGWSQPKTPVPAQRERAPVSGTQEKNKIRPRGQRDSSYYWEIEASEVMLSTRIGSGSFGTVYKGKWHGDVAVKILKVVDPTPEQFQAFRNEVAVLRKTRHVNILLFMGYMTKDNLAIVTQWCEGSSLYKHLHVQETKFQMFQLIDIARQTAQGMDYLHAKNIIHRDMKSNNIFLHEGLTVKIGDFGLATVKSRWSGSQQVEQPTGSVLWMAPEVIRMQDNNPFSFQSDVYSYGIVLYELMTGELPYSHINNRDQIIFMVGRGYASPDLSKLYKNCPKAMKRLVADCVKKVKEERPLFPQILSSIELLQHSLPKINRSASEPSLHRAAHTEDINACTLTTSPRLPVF

WT B‐RAF [2] = biological target: T3, WT B‐RAF (Homo sapiens, UniProt P15056, V600E); test: TR-FRET kinase assay, MEK1 (K97R) substrate; assay type: biochemical
T3 construct: gene BRAF; overexpressed in HEK293 cells, immunoprecipitated
T3 sequence (P15056 2-766 V600E): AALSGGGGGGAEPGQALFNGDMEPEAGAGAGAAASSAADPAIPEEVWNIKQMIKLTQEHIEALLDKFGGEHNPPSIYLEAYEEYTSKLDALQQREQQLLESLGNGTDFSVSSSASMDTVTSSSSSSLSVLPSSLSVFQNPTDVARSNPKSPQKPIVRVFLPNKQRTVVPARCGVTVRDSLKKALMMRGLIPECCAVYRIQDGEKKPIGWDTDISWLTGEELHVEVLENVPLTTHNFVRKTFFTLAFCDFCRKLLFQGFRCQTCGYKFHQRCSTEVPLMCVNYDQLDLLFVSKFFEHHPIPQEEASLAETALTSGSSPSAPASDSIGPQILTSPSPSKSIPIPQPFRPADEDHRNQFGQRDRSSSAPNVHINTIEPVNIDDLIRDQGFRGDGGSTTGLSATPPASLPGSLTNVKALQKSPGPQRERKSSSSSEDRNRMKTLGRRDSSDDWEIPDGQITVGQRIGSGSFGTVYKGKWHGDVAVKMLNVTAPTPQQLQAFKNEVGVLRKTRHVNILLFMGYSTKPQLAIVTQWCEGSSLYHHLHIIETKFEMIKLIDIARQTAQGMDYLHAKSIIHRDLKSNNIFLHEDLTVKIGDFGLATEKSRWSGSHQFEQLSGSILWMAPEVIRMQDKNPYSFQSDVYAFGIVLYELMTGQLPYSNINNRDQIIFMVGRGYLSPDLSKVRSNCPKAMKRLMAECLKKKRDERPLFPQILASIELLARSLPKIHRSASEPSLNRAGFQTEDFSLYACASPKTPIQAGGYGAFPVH

EGFR = EGFR (Homo sapiens, UniProt P00533); test: biochemical kinase assay (details not told)
EGFR, sequence (P00533 25-1210): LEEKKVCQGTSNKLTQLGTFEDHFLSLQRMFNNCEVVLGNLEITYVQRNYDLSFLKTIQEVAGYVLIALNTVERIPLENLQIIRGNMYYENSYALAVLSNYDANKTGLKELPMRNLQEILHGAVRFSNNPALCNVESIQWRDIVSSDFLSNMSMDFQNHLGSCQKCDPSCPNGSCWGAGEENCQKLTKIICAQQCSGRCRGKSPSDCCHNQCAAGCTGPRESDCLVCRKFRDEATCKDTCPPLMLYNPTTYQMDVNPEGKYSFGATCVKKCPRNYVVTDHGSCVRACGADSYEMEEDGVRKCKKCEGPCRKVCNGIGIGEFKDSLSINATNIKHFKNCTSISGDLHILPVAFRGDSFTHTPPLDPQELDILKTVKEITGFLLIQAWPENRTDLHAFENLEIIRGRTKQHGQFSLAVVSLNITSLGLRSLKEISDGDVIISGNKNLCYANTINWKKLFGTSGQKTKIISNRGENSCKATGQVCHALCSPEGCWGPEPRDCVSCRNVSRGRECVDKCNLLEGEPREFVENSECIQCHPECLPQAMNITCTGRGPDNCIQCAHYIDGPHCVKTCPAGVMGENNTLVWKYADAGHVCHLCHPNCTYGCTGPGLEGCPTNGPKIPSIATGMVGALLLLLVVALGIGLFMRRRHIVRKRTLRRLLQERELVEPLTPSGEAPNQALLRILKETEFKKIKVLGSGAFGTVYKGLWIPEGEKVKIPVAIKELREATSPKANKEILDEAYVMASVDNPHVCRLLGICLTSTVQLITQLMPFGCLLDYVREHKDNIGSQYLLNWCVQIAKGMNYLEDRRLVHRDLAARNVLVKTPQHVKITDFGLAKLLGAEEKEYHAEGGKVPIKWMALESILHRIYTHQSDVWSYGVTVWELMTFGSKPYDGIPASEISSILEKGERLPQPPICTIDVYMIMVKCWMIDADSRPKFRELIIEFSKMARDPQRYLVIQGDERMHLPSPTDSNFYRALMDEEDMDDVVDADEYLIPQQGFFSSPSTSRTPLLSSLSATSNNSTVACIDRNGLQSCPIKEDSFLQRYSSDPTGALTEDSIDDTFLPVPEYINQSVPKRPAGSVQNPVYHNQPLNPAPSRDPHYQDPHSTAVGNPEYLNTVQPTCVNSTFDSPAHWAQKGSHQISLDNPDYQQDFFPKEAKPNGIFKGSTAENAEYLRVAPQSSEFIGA
Description: biochemical kinase assay (details not told) on EGFR | Biochemical activity of compound C against WT B‐RAF, B‐RAF^V600E, C‐RAF, and EGFR

[3] = read-out: BGB-283 IC50 (nM) / 1 h
[4] = 1 mM ATP, 1 h pre-incubation, room temperature, time-dependent inhibition (6 h and 24 h pre-incubation also tested), read-out: Compound C IC50 (nM) / 1 h

T1 sequence (P15056 2-766): as the sequence (P15056 2-766 V600E) above, with E599V counted along it

IC50 (WT B‐RAF [1]; [3]) [nM]	IC50 (WT C‐RAF; [3]) [nM]	IC50 (WT B‐RAF [2]; [3]) [nM]	IC50 (WT B‐RAF [1]; [4]) [nM]	IC50 (EGFR) [nM]	IC50 (WT C‐RAF; [4]) [nM]	IC50 (WT B‐RAF [2]; [4]) [nM]	SMILES
2310	122	49					O=C1CCc2c(Oc3ccc4c(c3)[C@@H]3[C@H](O4)[C@H]3c3nc4ccc(C(F)(F)F)cc4[nH]3)ccnc2N1 [BGB‐283]
			24	1270	2.4	1.6	c1cc(-c2cnn3cc(-c4ccc(OCCN5CCCCC5)cc4)cnc23)ccn1 [compound C]

Source: article PMC7400788, “RAF dimer inhibition enhances the antitumor activity of MEK inhibitors in K‐RAS mutant tumors” (Molecular Oncology, 2020)
